Reference: patent EP0595743B1, “Bihaptinic derivatives for binding technetium or rhenium, process for their preparation, application for diagnosis and therapy, kits and immunological reactants comprising them” (priority 1992, dated 2001)

Key:
cellules hépatiques = conditions: 2 µg antibody 679.1MC7 24 h earlier; 100 µCi (15 pmol) i.v.; 4 h after injection
Protocol: (§1) La liaison du dérivé de l'exemple 3 aux cellules hépatiques s'effectue par l'intermédiaire de sa liaison au site Ac de l'anticorps 679.1MC7, lui même lié par son fragment F(c) à ces cellules. Des souris ayant reçu 2µg d'anticorps 679.1MC7 24 heures plus tôt sont injectées par voie intraveineuse avec 100 µCi (15 pmol) de dérivé de l'exemple 3. Les images sont réalisées avec une caméra Sopha Medical Gammatome 2 équipée avec un collimateur haute résolution de moyenne énergie, puis les animaux sont sacrifiés et la radioactivité présente dans le foie est déterminée à l'aide d'un compteur gamma. […] 100 µCi de dérivé de l'exemple 3 sont injectés à une souris ayant reçu quelques minutes plus tôt 1µg de conjugué anticorps CY34-679.1MC7 (anti-lyb8.2-anti-Histamine-Succinyl-Glycine). Les images sont enregistrées comme indiqué dans l'exemple précédent. […] Des cellules de tumeurs colorectales humaines (cellules LS 174, 3.10^6) sont injectées par voie sous cutanée à des souris nudes. […] Les souris reçoivent alors 2µg de conjugué anticorps F6-679.1MC7 (antiCEA-anti-Histamine-Succinyl-Glycine). Vingt quatre heures plus tard les souris reçoivent 6,7µCi (1pmol) de dérivé de l'exemple 3. Six heures plus tard les images sont enregistrées comme indiqué dans l'exemple précédent puis les animaux sacrifiés.

[1] = test system: tumeurs colorectales humaines (LS174); conditions: 2 µg conjugate F6-679.1MC7 24 h earlier, 6,7 µCi (1 pmol)
Protocol: as §1

[2] = test system: lymphocytes de souris BALB/c qui expriment l'antigène Lyb 8.2; conditions: 1 µg conjugate CY34-679.1MC7 a few minutes earlier; 100 µCi; 4 h after injection
Protocol: as §1

cellules LS-174 T = conditions: LS-174 T cells 7.10^6/ml, 4 °C, 2 h; nanomolar concentrations of bispecific antibody (anti-CEA/anti-histamine-succinyl-glycine); maximum binding
Protocol: Des cellules LS-174 T (7.10^6 cellules/ml), cellules d'origine humaine connues pour exprimer à leur surface l'antigène carcino-embryonnaire, sont incubées à 4° C pendant 2 heures dans des tubes contenant un tampon phosphate isotonique à pH 7,3. Dans ces tubes, ont été ajoutés à des concentrations variables le conjugué bispécifique approprié (anti-antigène carcino-embryonnaire/anti-histamine-succinyl-glycine), marqué à l'iode-125 suivant une des techniques bien connues et la sonde, marquée au ^99mTc comme décrit ci-dessus. Ces concentrations sont calculées pour couvrir un domaine s'étendant de concentrations très inférieures à très supérieures à la concentration de l'antigène cible dans le mélange. A la fin de cette incubation, 100 µl de mélange sont transférés en triplicates dans des tubes contenant un mélange de phthalates. Les tubes sont centrifugés 30 secondes à environ 5000 g. Les cellules, plus denses que les phthalates, forment un culot alors que le surnageant reste à la surface. On peut alors compter séparément les activités (^125I et ^99mTc) liées aux cellules et les activités non liées et en calculer les rapports.

^99mTc mercaptoacétyl-Glycyl-Glycyl-Glycyl-N-ε-(Histamine-Succinyl-Glycine)-Lysyl-D-Tyrosyl-N-ε-(Histamine-Succinyl-Glycine)-Lysinamide [Exemple 3]
% de la dose injectée localisée dans le foie (cellules hépatiques): 54 ± 6 % de la dose injectée
scintigraphie du foie (cellules hépatiques): apparent en scintigraphie
visibilité des tumeurs [1]: visibles dès trois heures après l'injection
localisation de la radioactivité ([1]; 6 h after injection): 9,8 ± 3,7 % / g de tumeur
rapport de marquage tumeur/plasma ([1]; 6 h after injection): 2.0 + 0.5
% de la dose injectée localisée dans la rate [2]: 43 ± 3 % de la dose injectée
scintigraphie de la rate [2]: apparente en scintigraphie
pourcentage de sonde lié par rapport à sa quantité totale (cellules LS-174 T): ~70%
